Laboratory results published in patent US12630546B2, “RNF4 targeting compounds and uses thereof” (TECHNION RESEARCH & DEVELOPMENT FOUNDATION LIMITED, priority 2021, dated 2026).
pIC50: −log10 of the molar value. “Also recorded” adds a separate entry of the source.

Experiments:
[1] = tested on: mouse melanoma B16F10 cancer cells; assay: Cell viability (MTT) of B16F10 melanoma cells; format: cell-based; conditions: three days treatment
Description: (§1) Cell viability was assessed using MTT (Sigma-Aldrich) and ATP-lite (Perkin Elmer) assays according to the manufacture instructions. In assays evaluating resistance to PLX4032, PLX4032-treated cells were cultured for six days before analysis. Viability was measured using cells were performed in 96-well plates and cells incubated for 24 h at 37° C. Next, cells were incubated in MTT solution (Sigma-Aldrich) and processed according to the manufacturer instructions and analyzed using Stat Fax 2100 ELISA reader.

human Myeloma U266 cells = assay: Cell viability (MTT) of multiple myeloma cells; format: cell-based; conditions: concentrations similar to A375R
Description: as §1

[2] = tested on: human squamous skin cancer cells (SCC1); assay: Colony formation of squamous cell carcinoma cells; format: cell-based
Description: Colony formation assay: Cells were suspended in DMEM or RPMI medium and seeded at a density of 1000 cells/well. Plates were maintained at 37° C. for six days, fixed overnight with 4% paraformaldehyde (PFA), stained with 0.05% crystal violet.

[3] = tested on: U2OS human osteosarcoma cells; assay: Cell viability (MTT) of osteosarcoma cells; format: cell-based; conditions: concentrations similar to A375R
Description: as §1

A375R melanoma cells [4] = assay: Cell death by FACS analysis (sub-G1); format: cell-based, human; conditions: 3 h exposure, 20 uM
RNF4 = molecular target: T1, RNF4 (Homo sapiens, UniProt P78317); assay: RNF4 protein level by western blot after R4VP treatment; format: cell-based; set-up: RNF4 degradation in the presence of proteasome inhibitor MG132: dose or concentration left out as unconfirmed
T1 construct: endogenous in cells; host or cells: A375 / A375R human melanoma cells
T1 sequence (P78317 1-190): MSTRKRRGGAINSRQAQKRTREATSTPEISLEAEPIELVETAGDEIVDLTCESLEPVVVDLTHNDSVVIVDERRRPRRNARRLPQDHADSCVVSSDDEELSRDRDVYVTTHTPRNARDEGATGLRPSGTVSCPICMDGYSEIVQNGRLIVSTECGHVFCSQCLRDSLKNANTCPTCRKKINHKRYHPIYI
Description: Protein stability was determined in steady state and dynamic CHX chase experiments as described (Trausch-Azar et al. 2015). Proteins resolved over SDS-PAGE, using the indicated antibodies, and visualized using chemiluminescence (Image-Quan LAS4000). Where indicated cells were treated for the indicated times and concentrations with R4VP or related compounds.

[5] = tested on: B16F10 murine melanoma cells; assay: Colony formation of B16F10 melanoma cells; format: cell-based, mouse; conditions: nine days
human U2OS sarcoma cells = assay: Colony formation of osteosarcoma cells; format: cell-based; conditions: added at cell seeding, colonies visualized 9 d after seeding
A375R melanoma cells [6] = assay: Cell viability (MTT) of Vemurafenib-resistant melanoma cells; format: cell-based, human; conditions: six days, in presence of PLX4032
Description: as §1

human A375R melanoma = assay: Colony formation of PLX-resistant melanoma cells; format: cell-based; conditions: added at cell seeding, colonies visualized 8 d after seeding

In the case of `Cc1ncsc1-c1ccc(CNC(=O)[C@H]2C[C@@H](O)CN2C(=O)[C@H](NC(=O)CCC(=O)NCCCCOc2ccc(Oc3ccc(N(Cc4ccccc4)C(=O)CCl)cc3)cc2)C(C)(C)C)cc1` [R4VP, N1-(4-(4-(4-(N-benzyl-2-chloroacetamido)phenoxy)phenoxy)butyl)-N4-((R)-1-((2R,4R)-4-hydroxy-2-((4-(4-methylthiazol-5-yl)benzyl)carbamoyl)pyrrolidin-1-yl)-3,3-dimethyl-1-oxobutan-2-yl)succinamide], the “effect on proliferation/viability of B16F10 cells” value [1] was “inhibits proliferation and colony formation”, the “effect on proliferation/viability of B16F10 cells” value ([1]; listed as RNF4-VHL-PROTAC) was “inhibits cell proliferation and colony formation” and the “effect on proliferation of U266 cells” value (human Myeloma U266 cells) was “growth inhibitory effects were also observed; also recorded: inhibits proliferation of human Myeloma U266cells”. For the same compound, the “effect on colony formation of SCC1 cells” value ([2]; 1, 3 and 5 μM) was “inhibiting colony formation”, the pIC50 ([2]; Homo sapiens, squamous cell carcinoma cell line, printed HCC1) was over 6.00 and the “effect on proliferation of U2OS cells” value [3] was “growth inhibitory effects were also observed; also recorded: inhibits proliferation of U2OS human osteosarcoma cells in a dose dependent manner”. For the same compound, the “cell death, accumulation of cells in sub-G1” value (A375R melanoma cells [4]) was “extensive cell death”, the “cell death, accumulation of cells in sub-G1” value (A375R melanoma cells [4]; listed as RNF4-VHL-PROTAC) was “results in cell-death” and the “RNF4 degradation in the presence of proteasome inhibitor MG132” value (RNF4; A375R cells, MG132 as printed) was “can be inhibited by the proteasome inhibitor MG132; also recorded: restored to levels similar to control treated cells”. For the same compound, the “RNF4 protein level (exogenous HA-RNF4 or endogenous)” value (RNF4; A375R cells, three hours treatment, western blot) was “reduced the level of exogenous or endogenous RNF4 protein; also recorded: induced degradation of RNF4”, the “endogenous RNF4 level, dose dependence” value (RNF4; A375 melanoma cells) was “reduces the level of endogenous RNF4 in A375 melanoma cells in a dose dependent manner” and the “effect on colony formation of B16F10 cells” value [5] was “inhibits proliferation and colony formation”. The “effect on colony formation of B16F10 cells” value ([5]; listed as RNF4-VHL-PROTAC) was “inhibits cell proliferation and colony formation”, the “effect on colony formation of U2OS cells” value (human U2OS sarcoma cells) was “inhibited colony formation of melanoma and osteosarcoma cells in a dose dependent manner; also recorded: inhibits colony formation of human U2OS sarcoma cells” and the “concentration inhibiting growth and proliferation” value (A375R melanoma cells [6]; A375R) was at least 10 µM. The “effect on growth and proliferation of A375R cells” value (A375R melanoma cells [6]) was “inhibits A375R proliferation” and the “effect on colony formation of A375R cells” value (human A375R melanoma) was “inhibited colony formation of melanoma and osteosarcoma cells in a dose dependent manner; also recorded: inhibits colony formation of human A375R melanoma”.
